For one assay, the target named is T1, KAT5 (Homo sapiens, UniProt Q92993).
T1 construct: His-TEV tag (N, cleaved yes); made in house
Nature of the assay: KAT5 enzyme inhibition assay (SAMDI mass spectrometry). In kind it is biochemical. The settings on record: His-TEV-FL KAT5-Flag enzyme construct.

The next assay concerns the target T2, KAT6A (Homo sapiens, UniProt Q92794).
T2 construct: His-TEV tag (N, cleaved yes); made in house
Nature of the assay: KAT6A enzyme inhibition assay (SAMDI mass spectrometry). Format: biochemical. The following applies: His-TEV-KAT6A 501-784 enzyme construct.

Results on 26 compounds are retold here after patent publication US20220267260A1, “COMPOUNDS CONTAINING A SULFONIC GROUP AS KAT INHIBITORS” (Epizyme, Inc., priority 2016, published 2022).

For orientation: IC50 means the concentration that inhibits the measured activity by half. The low end stands for higher potency, the high end for lower potency.

T2 sequence (Q92794 with tags, fused parts or gaps): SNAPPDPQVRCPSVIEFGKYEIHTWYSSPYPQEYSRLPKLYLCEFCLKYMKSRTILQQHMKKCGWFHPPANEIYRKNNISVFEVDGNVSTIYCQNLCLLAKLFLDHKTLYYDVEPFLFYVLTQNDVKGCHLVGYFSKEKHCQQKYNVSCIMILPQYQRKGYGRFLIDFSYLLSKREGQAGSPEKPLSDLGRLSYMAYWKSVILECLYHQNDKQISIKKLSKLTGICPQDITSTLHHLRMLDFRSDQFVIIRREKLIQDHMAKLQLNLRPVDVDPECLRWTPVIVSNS
T1 sequence (Q92993 with tags, fused parts or gaps): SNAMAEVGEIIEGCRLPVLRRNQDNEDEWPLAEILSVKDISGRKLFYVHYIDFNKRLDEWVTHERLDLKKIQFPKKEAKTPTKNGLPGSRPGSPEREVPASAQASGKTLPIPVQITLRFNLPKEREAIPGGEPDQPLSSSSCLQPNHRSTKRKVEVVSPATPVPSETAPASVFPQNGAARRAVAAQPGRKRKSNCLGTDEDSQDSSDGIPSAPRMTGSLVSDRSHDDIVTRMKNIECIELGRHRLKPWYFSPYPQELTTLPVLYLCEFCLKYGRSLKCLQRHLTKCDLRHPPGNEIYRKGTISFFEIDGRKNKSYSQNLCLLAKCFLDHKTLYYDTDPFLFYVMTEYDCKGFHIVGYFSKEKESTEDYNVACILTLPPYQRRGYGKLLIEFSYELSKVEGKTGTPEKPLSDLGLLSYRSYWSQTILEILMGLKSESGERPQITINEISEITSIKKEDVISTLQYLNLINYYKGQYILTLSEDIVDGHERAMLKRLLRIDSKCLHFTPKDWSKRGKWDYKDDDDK

Consider `CNC(=O)Cn1cc(F)c(C(=O)NNS(=O)(=O)C2CCCCC2)n1` [Compound I-496], for which the IC50 against KAT5 and against KAT6A was greater than 100 µM in each case.
For the compound `O=C(NNS(=O)(=O)c1ccccc1)c1c(F)ccc(-c2cnc[nH]2)c1F` [Compound I-497], the half-inhibitory concentration (IC50) against KAT5 lay within 50 to 100 µM; at KAT6A, 10 to 50 µM.
Taken in the same sequence, the figures for `CCc1cc(F)cc(-c2cc(Cl)c(F)c(C(=O)NNS(=O)(=O)C3CCCCC3)c2)c1` [Compound I-498] were 10 to 50 µM and 10 to 50 µM.
Taken in the same sequence, the figures for `O=C(NNS(=O)(=O)c1cccc(Cl)c1)c1c(F)ccc(-c2cnc[nH]2)c1F` [Compound I-499] were greater than 100 µM and greater than 100 µM.
Taken in the same sequence, the figures for `CNC(=O)Cn1nc(C)cc1C(=O)NNS(=O)(=O)C1CCCCC1` [Compound I-500] were greater than 100 µM and greater than 100 µM.
On to `Cc1nn(CC(=O)NC2CCC2)c(C(=O)NNS(=O)(=O)C2CCCCC2)c1F` [Compound I-501], for which the 50% inhibitory concentration (IC50) against KAT5 and against KAT6A was greater than 100 µM in each case.
For `Cc1nn(CC(=O)NCCN(C)C)c(C(=O)NNS(=O)(=O)C2CCCCC2)c1F` [Compound I-502], the half-inhibitory concentration (IC50) against KAT5 and against KAT6A was greater than 100 µM each time.
For the compound `CNC(=O)Cn1nc(C)c(F)c1C(=O)NNS(=O)(=O)C1CCCCC1` [Compound I-503], the concentration for half-maximal inhibition (IC50) against KAT5 and against KAT6A was greater than 100 µM throughout.
Consider `Cc1nn(CC(=O)NCCO)c(C(=O)NNS(=O)(=O)C2CCCCC2)c1F` [Compound I-504], for which the IC50 at KAT5 and against KAT6A was greater than 100 µM each time.
Consider `CNC(=O)CCNC(=O)Cn1nc(C)c(F)c1C(=O)NNS(=O)(=O)C1CCCCC1` [Compound I-505], for which the IC50 against KAT5 and against KAT6A was greater than 100 µM each time.
As to `COCCN1CCC(CS(=O)(=O)NNC(=O)c2cc(-c3ccccc3)cc(C)c2F)CC1` [Compound I-507], the half-maximal inhibitory concentration (IC50) against KAT5 and against KAT6A was no more than 10 µM in each case.
For the compound `O=C(NNS(=O)(=O)CC1CCCCC1)c1cc(-c2cn3ccccc3n2)cc(Cl)c1F` [Compound I-510], the concentration for half-maximal inhibition (IC50) at KAT5 was no more than 10 µM; against KAT6A it was greater than 100 µM.
Taken in the same sequence, the figures for `CCS(=O)(=O)N1CCCC(CS(=O)(=O)NNC(=O)c2cc(-c3cccc(C)c3)cc(Cl)c2F)C1` (stereo not shown) [Compound I-511] were no more than 10 µM and greater than 100 µM.
Consider `Cc1cccc(-c2cc(Cl)c(F)c(C(=O)NNS(=O)(=O)CC3CCCN(C(=O)C4CCC4)C3)c2)c1` (stereo not shown) [Compound I-512], for which the concentration for half-maximal inhibition (IC50) was no more than 10 µM on KAT5 and greater than 100 µM against KAT6A.
Taken in the same sequence, the figures for `Cc1cccc(-c2cc(Cl)c(F)c(C(=O)NNS(=O)(=O)CC3CCCN(C(=O)OC(C)(C)C)C3)c2)c1` (stereo not shown) [Compound I-513] were no more than 10 µM and greater than 100 µM.
`Cc1cccc(-c2cc(Cl)c(F)c(C(=O)NNS(=O)(=O)CC3CCCNC3)c2)c1` (stereo not shown) [Compound I-514]: the IC50 at KAT5 and against KAT6A was greater than 100 µM each time.
`CC(=O)N1CCCC(CS(=O)(=O)NNC(=O)c2cc(-c3cccc(C)c3)cc(Cl)c2F)C1` (stereo not shown) [Compound I-515]: the IC50 against KAT5 was no more than 10 µM; against KAT6A, greater than 100 µM.
Taken in the same sequence, the figures for `Cc1cccc(-c2cc(Cl)c(F)c(C(=O)NNS(=O)(=O)CC3CCN(C(=O)OC(C)(C)C)C3)c2)c1` (stereo not shown) [Compound I-516] were no more than 10 µM and greater than 100 µM.
Taken in the same sequence, the figures for `Cc1cccc(-c2cc(Cl)c(F)c(C(=O)NNS(=O)(=O)CC3CCNC3)c2)c1` (stereo not shown) [Compound I-517] were greater than 100 µM and greater than 100 µM.
Take `CCNC(=O)N1CCC(CS(=O)(=O)NNC(=O)c2cc(-c3cccc(C)c3)cc(Cl)c2F)C1` (stereo not shown) [Compound I-518]: the IC50 on KAT5 and against KAT6A was greater than 100 µM in each case.
`CCN(C)C(=O)N1CCC(CS(=O)(=O)NNC(=O)c2cc(-c3cccc(C)c3)cc(Cl)c2F)C1` (stereo not shown) [Compound I-519]: the half-inhibitory concentration (IC50) at KAT5 and at KAT6A was no more than 10 µM in each case.
For `Cc1ccc(-c2csc(NS(=O)(=O)c3cccc(C(=O)O)c3)n2)cc1C` [Compound I-520], the IC50 against KAT5 and against KAT6A was greater than 100 µM each time.
For `O=C(NNS(=O)(=O)c1cccc(-c2ccccc2)c1)c1ccccc1` [Compound I-521], the IC50 against KAT5 and on KAT6A was greater than 100 µM in each case.
As to `O=C(NNS(=O)(=O)c1cccc(-c2ccccc2)c1)C1CCCCC1` [Compound I-522], the concentration for half-maximal inhibition (IC50) against KAT5 and against KAT6A was greater than 100 µM each time.
For the compound `O=C(NNS(=O)(=O)c1cc(-c2ccccc2)cc(Cl)c1F)c1ccccc1` [Compound I-523], the IC50 on KAT5 and on KAT6A was 10 to 50 µM throughout.
Take `O=C(NNS(=O)(=O)c1cc(-c2ccccc2)cc(Cl)c1F)C1CCCCC1` [Compound I-524]: the IC50 against KAT5 fell in the range of 50 to 100 µM; on KAT6A, 10 to 50 µM.
